pEC50, pIC50: −log10 of the molar value. Where “and” joins values, the source holds several entries; their conditions need not be identical. Equal entries are not always repeated.
Key:
[1] = Liver Microsome Stability Assay (human); details: human liver microsomes, with NADPH, 1.0 uM compound
Description: (§1) Stability of a compound was assessed in the presence of liver microsomes from various sources—mouse, rat, monkey and human liver microsomes. 1.0 uM compound, 0.4% DMSO in 0.1 M Potassium Phosphate with 1.0 mg/mL liver microsomes, were incubated at 37° C. with or without 1 mM NADPH. The samples were quenched at 0, and 30 minutes.

[2] = tested on: multiple myeloma cell line U266B1; test: U266 Cell Viability Assay; format: cell-based, human; details: Homo sapiens, U-266, 48 h, U266B1 cells, Celltiter-Glo
Summary of the method: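 Steps: culture in RPMI 1640 plus 10% FBS and 2 mM glutamine; plate and add compound dilutions; incubate 48 hours at 37° C., 5% CO2; add CellTiter-Glo and quantify luciferase signal.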

[3] = Liver Microsome Stability Assay (mouse); details: mouse liver microsomes, with NADPH, 1.0 uM compound
Description: as §1

[4] = tested on: TNFα-FL/Gaussia Luciferase; test: Dox Induced TNFα-FL-Gluc Assay; format: cell-based; details: for pIC50: 24 hr Dox induction, 293FRT/TO cells, read-out: 24 hr Dox Inducible TNFaFLGluc 293FRT/TO: Mean IC50; for 24 hr Dox Inducible TNFaFLGluc 293FRT/TO: TNF/PD1: ratio of TNFaFLGluc IC50 to PD1ssGluc IC50
Summary of the method: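 Stereoisomer mixtures were tested where stereochemistry is not drawn. Induction used doxycycline added together with compound dilutions in DMSO/media to Flp-In 293 T-REx cells carrying a T-REx-regulated TNFα (aa 1-233)-Gaussia luciferase construct, then incubated at 37 °C, 5% CO2.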

[5] = Liver Microsome Stability Assay (monkey); details: monkey liver microsomes, with NADPH, 1.0 uM compound
Description: as §1

[6] = tested on: multiple myeloma cell line NCI-H929; test: H929 Cell Viability Assay; format: cell-based, human; details: Homo sapiens, NCI-H929, 48 h, NCI-H929 cells, Celltiter-Glo
Summary of the method: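 Luminescent ATP detection (CellTiter-Glo) after 48 hours of compound exposure measures viability. Cells were plated in RPMI 1640 containing 10% fetal bovine serum and kept at 37° C under 5% CO2.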

[7] = tested on: HER3-ss+4aa/Gaussia Luciferase; test: Dox-Induced Her3-ss-Gluc Assay; format: cell-based; details: 24 hr Dox induction; 293FRT/TO cells; read-out: 24 hr Dox Inducible Her3(ss + 4)Gluc 293FRT/TO: Mean IC50
Summary of the method: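 Cells were seeded a day ahead, then given compound diluted in DMSO/media with doxycycline to induce expression of the HER3 signal sequence (+4 aa)–Gaussia luciferase fusion. Incubation was at 37° C., 5% CO2, in a stable Flp-In 293 T-REx line.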

[8] = tested on: PD1-ss+10aa/Gaussia Luciferase; test: Dox-Induced PD1-ss-Gluc Assay; format: cell-based; details: 24 hr Dox induction; 293FRT/TO cells; read-out: 24 hr Dox Inducible PD1ssGluc 293FRT/TO: Mean IC50
Summary of the method: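 Flp-In 293 T-REx, stable line; Tet-regulated PD1-ss+10aa fused to Gaussia luciferase; plated day prior; cpd + doxycycline in DMSO/media; 37 °C, 5% CO2.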

[9] = Liver Microsome Stability Assay (rat); details: rat liver microsomes, with NADPH, 1.0 uM compound
Description: as §1

[10] = tested on: IL-2-FL/Gaussia Luciferase; test: Dox Induced IL2-FL-Gluc Assay; format: cell-based; details: for pIC50: 24 hr Dox induction, 293FRT/TO cells, read-out: 24 hr Dox Inducible IL2FLGluc 293FRT/TO: Mean IC50; for 24 hr Dox Inducible IL2FLGluc 293FRT/TO: IL2/PD1: ratio of IL2FLGluc IC50 to PD1ssGluc IC50
Summary of the method: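 Cells are plated one day ahead, then receive compound dilutions in DMSO/media with doxycycline and incubate at 37° C, 5% CO2. They are Flp-In 293 T-REx cells expressing a full-length IL-2 (amino acids 1-153)–Gaussia luciferase fusion under T-REx control.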

| Compound | Liver Microsome Stability (Multiple Species): Human - % Remaining after 30 min w/NADPH [1] | pEC50 [2] | Liver Microsome Stability (Multiple Species): Mouse - % Remaining after 30 min w/NADPH [3] | pIC50 [4] | 24 hr Dox Inducible TNFaFLGluc 293FRT/TO: TNF/PD1 [4] | Liver Microsome Stability (Multiple Species): Monkey - % Remaining after 30 min w/NADPH [5] | pEC50 [6] | pIC50 [7] | pIC50 [8] | Liver Microsome Stability (Multiple Species): Rat - % Remaining after 30 min w/NADPH [9] | pIC50 [10] | 24 hr Dox Inducible IL2FLGluc 293FRT/TO: IL2/PD1 [10] |
| --- | --- | --- | --- | --- | --- | --- | --- | --- | --- | --- | --- | --- |
| Cc1cn(C(C)C)nc1/C=C/c1csc(NC(=O)c2cccn2Cc2ccnc(F)c2)n1 [Compound B83, (E)-1-((2-fluoropyridin-4-yl)methyl)-N-(4-(2-(1-isopropyl-4-methyl-1H-pyrazol-3-yl)vinyl)thiazol-2-yl)-1H-pyrrole-2-carboxamide] | 2.94% and 2.65% | 4.82 | 11.1% and 10.1% | 4.93 | 36.6 | 0.25% and 0.24% | 4.95 | 5.71 | 6.50 | 6.87% and 5.01% | 5.49 | 10 |
| CC(C)c1c(/C=C/c2csc(NC(=O)c3cccn3Cc3ccncc3)n2)ncn1C [Compound B85, (E)-N-(4-(2-(5-isopropyl-1-methyl-1H-imidazol-4-yl)vinyl)thiazol-2-yl)-1-(pyridin-4-ylmethyl)-1H-pyrrole-2-carboxamide] | 1.26% | < 4.60 | 0.8% | < 4.60 | >75.9 | 0.13% | < 4.60 | < 4.60 | 6.48 | 2.02% | < 4.60 | >76 |
| O=C(Nc1nc(/C=C/c2ncn3c2CCCC3)cs1)c1cccn1Cc1ccnc(F)c1 [Compound B86, (E)-1-((2-fluoropyridin-4-yl)methyl)-N-(4-(2-(5,6,7,8-tetrahydroimidazo[1,5-a]pyridin-1-yl)vinyl)thiazol-2-yl)-1H-pyrrole-2-carboxamide] | 0.27% | 4.78 | 12.5% | < 4.60 | >239 | 0.11% | 4.78 | 4.63 | 6.98 | 17% | < 4.60 | >240 |
| CC(C)c1ccc(/C=C/c2csc(NC(=O)c3cccn3Cc3cc(F)nc(F)c3)n2)nc1 [Compound B87, (E)-1-((2,6-difluoropyridin-4-yl)methyl)-N-(4-(2-(5-isopropylpyridin-2-yl)vinyl)thiazol-2-yl)-1H-pyrrole-2-carboxamide] | 0.15% | 4.85 | 1.23% | < 4.60 | >189 | 0.04% | 5.00 | < 4.60 | 6.88 | 0.18% | < 4.60 | >190 |
| Cc1cc(/C=C/c2csc(NC(=O)c3cccn3Cc3ccnc(F)c3)n2)no1 [Compound B88, (E)-1-((2-fluoropyridin-4-yl)methyl)-N-(4-(2-(5-methylisoxazol-3-yl)vinyl)thiazol-2-yl)-1H-pyrrole-2-carboxamide] | 15.6% | < 4.60 | 3.15% | < 4.60 | >40.0 | 15.2% | < 4.60 | < 4.60 | 6.20 | 2.29% | < 4.60 | >40 |
| CCc1cc(/C=C/c2csc(NC(=O)c3cccn3Cc3ccnc(F)c3)n2)no1 [Compound B89, (E)-N-(4-(2-(5-ethylisoxazol-3-yl)vinyl)thiazol-2-yl)-1-((2-fluoropyridin-4-yl)methyl)-1H-pyrrole-2-carboxamide] | 0.4% | < 4.60 | 2.24% | < 4.60 | >92.2 | 0.17% | < 4.60 | 5.96 | 6.57 | 1.11% | 5.78 | 6.1 |
| CC(C)c1cc(/C=C/c2csc(NC(=O)c3cccn3Cc3ccnc(F)c3)n2)no1 [Compound B90, (E)-1-((2-fluoropyridin-4-yl)methyl)-N-(4-(2-(5-isopropylisoxazol-3-yl)vinyl)thiazol-2-yl)-1H-pyrrole-2-carboxamide] | 0.87% | < 4.60 | 10.8% | < 4.60 | >150 | 0.54% | 4.64 | 6.16 | 6.78 | 5.78% | 5.93 | 7 |
| CC(=O)N1CCC(n2cnc(/C=C/c3csc(NC(=O)c4cccn4Cc4ccnc(F)c4)n3)c2)CC1 [Compound B91, (E)-N-(4-(2-(1-(1-acetylpiperidin-4-yl)-1H-imidazol-4-yl)vinyl)thiazol-2-yl)-1-((2-fluoropyridin-4-yl)methyl)-1H-pyrrole-2-carboxamide] | 0.22% | < 4.60 | 33.9% | < 4.60 | >4.13 | 0.24% | < 4.60 | < 4.60 | 5.22 | 44.2% | < 4.60 | >4.1 |
| O=C(Nc1nc(/C=C/c2cn(C3CCOCC3)cn2)cs1)c1cccn1Cc1ccnc(F)c1 [Compound B92, (E)-1-((2-fluoropyridin-4-yl)methyl)-N-(4-(2-(1-(tetrahydro-2H-pyran-4-yl)-1H-imidazol-4-yl)vinyl)thiazol-2-yl)-1H-pyrrole-2-carboxamide] | 0.19% | < 4.60 | 6.38% | < 4.60 | >345 | 0.04% | 4.64 | < 4.60 | 7.14 | 2.02% | 4.92 | 170 |

From US20230286973A1, “PROTEIN SECRETION INHIBITORS” (KEZAR LIFE SCIENCES, priority 2020, published 2023)
